For series [1], the target named is T1, human 5-HT2C receptor (Homo sapiens, UniProt P28335).
T1 sequence (P28335 33-458): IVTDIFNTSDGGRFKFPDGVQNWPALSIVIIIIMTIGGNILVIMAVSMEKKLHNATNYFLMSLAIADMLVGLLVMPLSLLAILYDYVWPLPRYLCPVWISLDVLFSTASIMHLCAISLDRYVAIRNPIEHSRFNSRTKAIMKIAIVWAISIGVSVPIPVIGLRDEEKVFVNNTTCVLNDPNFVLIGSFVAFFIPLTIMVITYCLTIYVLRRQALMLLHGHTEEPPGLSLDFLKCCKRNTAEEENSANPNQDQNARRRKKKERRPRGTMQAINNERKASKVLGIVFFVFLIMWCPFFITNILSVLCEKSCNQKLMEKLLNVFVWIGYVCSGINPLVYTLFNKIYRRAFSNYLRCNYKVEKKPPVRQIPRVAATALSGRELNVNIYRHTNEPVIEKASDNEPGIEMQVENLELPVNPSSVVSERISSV
The experiment in a line: 5-HT2C receptor-stimulated calcium mobilization (FLIPR) in CHO cells. Type of series: cell-based.

Series [2] addresses T2, human 5-hydroxytryptamine-2C (h-5-HT2C) receptor (Homo sapiens, UniProt P28335).
T2 sequence (P28335 33-458): T1 sequence (P28335 33-458)
The experiment in a line: [125I]DOI binding to membranes of CHO cells expressing the h-5-HT2C receptor.

[3] abbreviates: 5-HT2c Affinity KI (nM), displacement of [125I]DOI, CHO cell membranes.

Structures can show the parent of a compound that is named as a salt. Where two headings read alike, the source gives them in different places.

For the compound `Clc1ccc2c3c1CCNCCN3C1CCCCCC21` (centres unmarked) (as salt: fumarate) [Example 22, 6-Chloro-2,3,4,5,9,10,11,12,13,13a-decahydro-1H,8bH-cyclohepta[b][1,4]diazocino[7,8,1-hi]indole], the melting point was in the range of 168 to 170 °C. Still for that read-out and setting: in the case of `CCN1CCc2c(Cl)ccc3c2N(CC1)C1CCCCC31` (centres unmarked) (as salt: fumarate) [Example 23, 6-Chloro-3-ethyl-2,3,4,5,8b,9,10,11,12,12a-decahydro-1H-[1,4]diazocino[7,8,1-jk]carbazole] it was 184 to 187 °C; in that of `CN1CCc2ccc(F)c3c4c(n(c23)CC1)CCC4` (as salt: fumarate) [Example 24, 8-Fluoro-3-methyl-2,3,4,5,10,11-hexahydro-1H,9H-cyclopenta[b][1,4]diazocino[7,8,1-hi]indole], 168 to 170 °C; in that of `CN1CCc2ccc(F)c3c4c(n(c23)CC1)CCCC4` (as salt: fumarate) [Example 25, 8-Fluoro-3-methyl-2,3,4,5,9,10,11,12-octahydro-1H-[1,4]diazocino[7,8,1-jk]carbazole], 206 to 208 °C. For the compound `CN1CCc2ccc(F)c3c2N(CC1)C1CCCC31` (centres unmarked) (as salt: fumarate) [Example 26, 8-Fluoro-3-methyl-2,3,4,5,9,10,11,11a-octahydro-1H,8bH-cyclopenta[b][1,4]diazocino[7,8,1-hi]indole], the melting point is 180 to 182 °C. Same read-out and setting: in the case of `CN1CCc2ccc(F)c3c2N(CC1)C1CCCCC31` (centres unmarked) (as salt: fumarate) [Example 27, 8-Fluoro-3-methyl-2,3,4,5,8b,9,10,11,12,12a-decahydro-1H-[1,4]diazocino[7,8,1-jk]carbazole] it was 168 to 170 °C; in that of `Fc1ccc2c3c1c1c(n3CCNCC2)CCC1` (as salt: fumarate) [Example 28, 8-Fluoro-2,3,4,5,10,11-hexahydro-1H,9H-cyclopenta[b][1,4]diazocino[7,8,1-hi]indole], 199 to 200 °C; in that of `Fc1ccc2c3c1c1c(n3CCNCC2)CCCC1` (as salt: fumarate) [Example 29, 8-Fluoro-2,3,4,5,9,10,11,12-octahydro-1H-[1,4]diazocino[7,8,1-jk]carbazole], 177 to 179 °C. Regarding `Fc1ccc2c3c1C1CCCC1N3CCNCC2` (centres unmarked) (as salt: fumarate) [Example 30, 8-Fluoro-2,3,4,5,9,10,11,11a-octahydro-1H,8bH-cyclopenta[b][1,4]diazocino[7,8,1-hi]indole], the melting point was in the range of 169 to 170 °C.

The compound `Fc1ccc2c3c1C1CCCCC1N3CCNCC2` (centres unmarked) (as salt: fumarate) [Example 31, 8-Fluoro-2,3,4,5,8b,9,10,11,12,12a-decahydro-1H[1,4]diazocino[7,8,1-jk]carbazole] displayed a melting point of 189 to 190 °C. Still for that read-out and setting: in the case of `CN1CCc2ccc(Cl)c3c4c(n(c23)CC1)CCC4` (as salt: fumarate) [Example 34, 8-Chloro-3-methyl-2,3,4,5,10,11-hexahydro-1H,9H-cyclopenta[b][1,4]diazocino[7,8,1-hi]indole] it was 209 to 211 °C. On the same count and under the same terms, the result for `CN1CCc2ccc(Cl)c3c4c(n(c23)CC1)CCCC4` (as salt: fumarate) [Example 35, 8-Chloro-3-methyl-2,3,4,5,9,10,11,12-octahydro-1H-[1,4]diazocino[7,8,1-jk]carbazole] reads 212 to 214 °C; that for `CN1CCc2ccc(Cl)c3c2N(CC1)C1CCCC31` (centres unmarked) (as salt: fumarate) [Example 36, 8-Chloro-3-methyl-2,3,4,5,9,10,11,11a-octahydro-1H,8bH-cyclopenta[b][1,4]diazocino[7,8,1-hi]indole], 179 to 181 °C. The compound `CN1CCc2ccc(Cl)c3c2N(CC1)C1CCCCC31` (centres unmarked) (as salt: fumarate) [Example 37, 8-Chloro-3-methyl-2,3,4,5,8b,9,10,11,12,12a-decahydro-1H-[1,4]diazocino[7,8,1-jk]carbazole] displayed a melting point of 178 to 180 °C.

On to `Clc1ccc2c3c1c1c(n3CCNCC2)CCC1` (as salt: fumarate) [Example 38, 8-Chloro-2,3,4,5,10,11-hexahydro-1H,9H-cyclopenta[b][1,4]diazocino[7,8,1-hi]indole], for which the melting point was 226 to 228 °C. Consider `Clc1ccc2c3c1c1c(n3CCNCC2)CCCC1` (as salt: fumarate) [Example 39, 8-Chloro-2,3,4,5,9,10,11,12-octahydro-1H-[1,4]diazocino[7,8,1-jk]carbazole], for which the melting point was in the range of 199 to 201 °C. Same read-out and setting: the result for `Clc1ccc2c3c1C1CCCC1N3CCNCC2` (centres unmarked) (as salt: fumarate) [Example 40, 8-Chloro-2,3,4,5,9,10,11,11a-octahydro-1H,8bH-cyclopenta[b][1,4]diazocino[7,8,1-hi]indole] reads 169 to 170 °C; that for `Clc1ccc2c3c1C1CCCCC1N3CCNCC2` (centres unmarked) (as salt: fumarate) [Example 41, 8-Chloro-2,3,4,5,8b,9,10,11,12,12a-decahydro-1H-[1,4]diazocino[7,8,1-jk]carbazole], 199 to 200 °C. Still for that read-out and setting: in the case of `CN1CCc2cccc3c2N(CC1)C1CCSCC31` (centres unmarked) (as salt: fumarate) [Example 44, 3-Methyl-2,3,4,5,9,10,11,12-octahydro-1H,9H-[1,4]diazocino[7,8,1-hi]thiopyrano[4,3-b]indole] it was 187 to 189 °C; in that of `c1cc2c3c(c1)C1CCCC1N3CCNCC2` (centres unmarked) (as salt: hydrochloride) [Example 4, 2,3,4,5,9,10,11,11a-Octahydro-1H,8bH-cyclopenta[b][1,4]diazocino[7,8,1-hi]indole], 137 to 140 °C; in that of `Fc1ccc2c3c1[C@H]1CCCC[C@H]1N3CCNCC2` (single isomer, unassigned) (as salt: fumarate) [Example 32, (+)-(8bR*,12aR*)-8-Fluoro-2,3,4,5,8b,9,10,11,12,12a-decahydro-1H-[1,4]diazocino[7,8,1-jk]carbazole], over 130 °C. For the compound `Fc1ccc2c3c1[C@H]1CCCC[C@H]1N3CCNCC2` (single isomer, unassigned) (as salt: fumarate) [Example 33, (−)-(8bR*,12aR*)-8-Fluoro-2,3,4,5,8b,9,10,11,12,12a-decahydro-1H-[1,4]diazocino[7,8,1-jk]carbazole], the melting point was in the range of 94 to 96 °C. In the case of `Clc1ccc2c3c1[C@H]1CCCC[C@H]1N3CCNCC2` (single isomer, unassigned) (as salt: fumarate) [Example 42, (+)-(8bR*,12aR*)-8-Chloro-2,3,4,5,8b,9,10,11,12,12a-decahydro-1H-[1,4]diazocino[7,8,1-jk]carbazole], the melting point lay in the range of 170 to 173 °C. In the case of `Clc1ccc2c3c1[C@H]1CCCC[C@H]1N3CCNCC2` (single isomer, unassigned) (as salt: fumarate) [Example 43, (−)-(8bR*,12aR*)-8-Chloro-2,3,4,5,8b,9,10,11,12,12a-decahydro-1H-[1,4]diazocino[7,8,1-jk]carbazole], the melting point lay in the range of 168 to 171 °C.

In turn, `c1cc2c3c(c1)[C@H]1CCCC[C@H]1N3CCNCC2` (single isomer, unassigned) (as salt: fumarate) [Example 47, (+)-(8bR*,12aR*)-2,3,4,5,8b,9,10,11,12,12a-Decahydro-1H-[1,4]diazocino[7,8,1-jk]carbazole] registered a melting point of 139 to 140 °C.

Compound `c1cc2c3c(c1)[C@H]1CCC[C@H]1N3CCNCC2` (single isomer, unassigned) (as salt: hydrochloride) [Example 45, (+)-(8bR*,11aR*)-2,3,4,5,9,10,11,11a-Octahydro-1H,8bH-cyclopenta[b][1,4]diazocino[7,8,1-hi]indole] showed a melting point of over 130 °C. The compound `CN1CCc2cccc3c4c(n(c23)CC1)CCC4` [Example 1, 3-Methyl-2,3,4,5,10,11-hexahydro-1H,9H-cyclopenta[b][1,4]diazocino[7,8,1-hi]indole] showed a melting point of 128 to 130 °C. Moreover, the EC50 in series [1] was 48 nM. In addition, the Emax in series [1] (CHO, read-out: 5-HT2C Function Emax (%)) worked out at 45%. In series [2] (setting [3]), this compound gave a Ki of 35 nM. `CN1CCc2cccc3c4c(n(c23)CC1)CCSC4` [Example 11, 3-Methyl-2,3,4,5,11,12-hexahydro-1H,9H-[1,4]diazocino[7,8,1-hi]thiopyrano[4,3-b]indole]: the melting point was in the range of 123 to 125 °C. This compound showed a Ki in series [2] (setting [3]) of 38 nM.

`CN1CCc2c(Cl)ccc3c4c(n(c23)CC1)CCC4` [Example 12, 6-Chloro-3-methyl-2,3,4,5,10,11-hexahydro-1H,9H-cyclopenta[b][1,4]diazocino[7,8,1-hi]indole]: the melting point is 138 to 140 °C. For the same compound, the Ki in series [2] (read-out: 5-HT2c Affinity KI) was 250 nM.

For `CN1CCc2c(Cl)ccc3c4c(n(c23)CC1)CCCC4` [Example 13, 6-Chloro-3-methyl-2,3,4,5,9,10,11,12-octahydro-1H-[1,4]diazocino[7,8,1-jk]carbazole], the melting point was in the range of 128 to 130 °C. The same compound came in with a Ki in series [2] (setting [3]) of 34 nM. `CN1CCc2c(Cl)ccc3c4c(n(c23)CC1)CCCCC4` [Example 14, 6-Chloro-3-methyl-2,3,4,5,10,11,12,13-octahydro-1H,9H-cyclohepta[b][1,4]diazocino[7,8,1-hi]indole] registered a melting point of 132 to 134 °C. The Ki in series [2] (read-out: 5-HT2c Affinity KI) was 250 nM.
